From PubChem BioAssay (NCI)
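Briefly, cells in 96-well plates were exposed to five compound concentrations for 48 h, and endpoints were estimated by linear interpolation. Abbreviation: GI50, concentration required for 50% inhibition of growth. TGI: concentration producing complete growth inhibition.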

Key:
Assay in all cases: NCI-60 cell line screen, 48 h
HCT-15 colon = test system: HCT-15 colon
ACHN renal = test system: ACHN renal
NCI-H460 lung = test system: NCI-H460 lung
MALME-3M melanoma = test system: MALME-3M melanoma
MOLT-4 leukemia = test system: MOLT-4 leukemia
HCT-116 colon = test system: HCT-116 colon
HS 578T breast = test system: HS 578T breast
IGROV1 ovarian = test system: IGROV1 ovarian
KM12 colon = test system: KM12 colon
UACC-62 melanoma = test system: UACC-62 melanoma
SK-MEL-2 melanoma = test system: SK-MEL-2 melanoma
SNB-75 CNS = test system: SNB-75 CNS
NCI-H522 lung = test system: NCI-H522 lung
NCI-H226 lung = test system: NCI-H226 lung
OVCAR-4 ovarian = test system: OVCAR-4 ovarian
CCRF-CEM leukemia = test system: CCRF-CEM leukemia
SF-295 CNS = test system: SF-295 CNS
SK-MEL-28 melanoma = test system: SK-MEL-28 melanoma
HCC-2998 colon = test system: HCC-2998 colon
SR leukemia = test system: SR leukemia
TK-10 renal = test system: TK-10 renal
HT29 colon = test system: HT29 colon
PC-3 prostate = test system: PC-3 prostate
SNB-19 CNS = test system: SNB-19 CNS
RXF 393 renal = test system: RXF 393 renal
M14 melanoma = test system: M14 melanoma
LOX IMVI melanoma = test system: LOX IMVI melanoma
SK-OV-3 ovarian = test system: SK-OV-3 ovarian
HOP-92 NSCLC = test system: HOP-92 NSCLC
UO-31 renal = test system: UO-31 renal
K-562 leukemia = test system: K-562 leukemia
UACC-257 melanoma = test system: UACC-257 melanoma
EKVX NSCLC = test system: EKVX NSCLC
OVCAR-8 ovarian = test system: OVCAR-8 ovarian
HL-60(TB) leukemia = test system: HL-60(TB) leukemia
BT-549 breast = test system: BT-549 breast
CAKI-1 renal = test system: CAKI-1 renal
COLO 205 colon = test system: COLO 205 colon
A549 NSCLC = test system: A549 NSCLC
OVCAR-3 ovarian = test system: OVCAR-3 ovarian
OVCAR-5 ovarian = test system: OVCAR-5 ovarian
SN12C renal = test system: SN12C renal
786-0 renal = test system: 786-0 renal
SK-MEL-5 melanoma = test system: SK-MEL-5 melanoma
SW-620 colon = test system: SW-620 colon
HOP-62 NSCLC = test system: HOP-62 NSCLC
NCI/ADR-RES ovarian = test system: NCI/ADR-RES ovarian
DU-145 prostate = test system: DU-145 prostate
MDA-MB-435 = test system: MDA-MB-435
T-47D breast = test system: T-47D breast
U251 CNS = test system: U251 CNS
SF-539 CNS = test system: SF-539 CNS
RPMI-8226 leukemia = test system: RPMI-8226 leukemia
A498 renal = test system: A498 renal
MDA-MB-231 breast = test system: MDA-MB-231 breast
MCF7 breast = test system: MCF7 breast
SF-268 CNS = test system: SF-268 CNS

SMILES: CN(C)S(=O)(=O)c1oc(-c2ccccc2)nc1C#N
- GI50 (HCT-15 colon): 11.6 µM
- TGI (HCT-15 colon): 29.5 µM
- GI50 (ACHN renal): 14.9 µM
- TGI (ACHN renal): 28.6 µM
- GI50 (NCI-H460 lung): 22.3 µM
- TGI (NCI-H460 lung): 58.9 µM
- GI50 (MALME-3M melanoma): 13.4 µM
- TGI (MALME-3M melanoma): 30.1 µM
- GI50 (MOLT-4 leukemia): 2.82 µM
- TGI (MOLT-4 leukemia): 11.5 µM
- GI50 (HCT-116 colon): 12.6 µM
- TGI (HCT-116 colon): 25.6 µM
- GI50 (HS 578T breast): 23.4 µM
- TGI (HS 578T breast): 98.4 µM
- GI50 (IGROV1 ovarian): 29 µM
- TGI (IGROV1 ovarian): > 100 µM
- GI50 (KM12 colon): 28.5 µM
- TGI (KM12 colon): 97.9 µM
- GI50 (UACC-62 melanoma): 18.4 µM
- TGI (UACC-62 melanoma): 42.3 µM
- GI50 (SK-MEL-2 melanoma): 13.8 µM
- TGI (SK-MEL-2 melanoma): 28.6 µM
- GI50 (SNB-75 CNS): 16.1 µM
- TGI (SNB-75 CNS): 30.7 µM
- GI50 (NCI-H522 lung): 2.81 µM
- TGI (NCI-H522 lung): 11 µM
- GI50 (NCI-H226 lung): 10 µM
- TGI (NCI-H226 lung): 27.9 µM
- GI50 (OVCAR-4 ovarian): 14.8 µM
- TGI (OVCAR-4 ovarian): 32 µM
- GI50 (CCRF-CEM leukemia): 1.9 µM
- TGI (CCRF-CEM leukemia): 9.32 µM
- GI50 (SF-295 CNS): > 100 µM
- TGI (SF-295 CNS): > 100 µM
- GI50 (SK-MEL-28 melanoma): 16.3 µM
- TGI (SK-MEL-28 melanoma): 31.1 µM
- GI50 (HCC-2998 colon): 16.9 µM
- TGI (HCC-2998 colon): 31.6 µM
- GI50 (SR leukemia): 2.56 µM
- TGI (SR leukemia): 13.4 µM
- GI50 (TK-10 renal): 17.4 µM
- TGI (TK-10 renal): 31.6 µM
- GI50 (HT29 colon): 16.6 µM
- TGI (HT29 colon): 36.1 µM
- GI50 (PC-3 prostate): 15.3 µM
- TGI (PC-3 prostate): 32.2 µM
- GI50 (SNB-19 CNS): 50 µM
- TGI (SNB-19 CNS): > 100 µM
- GI50 (RXF 393 renal): 14.4 µM
- TGI (RXF 393 renal): 28.4 µM
- GI50 (M14 melanoma): 12.1 µM
- TGI (M14 melanoma): 26.7 µM
- GI50 (LOX IMVI melanoma): 1.26 µM
- TGI (LOX IMVI melanoma): 11.6 µM
- GI50 (SK-OV-3 ovarian): > 100 µM
- TGI (SK-OV-3 ovarian): > 100 µM
- GI50 (HOP-92 NSCLC): 5.76 µM
- TGI (HOP-92 NSCLC): 20.1 µM
- GI50 (UO-31 renal): 14.7 µM
- TGI (UO-31 renal): 28.2 µM
- GI50 (K-562 leukemia): 3.58 µM
- TGI (K-562 leukemia): 37.8 µM
- GI50 (UACC-257 melanoma): 15 µM
- TGI (UACC-257 melanoma): 29.8 µM
- GI50 (EKVX NSCLC): 21.5 µM
- TGI (EKVX NSCLC): 52.4 µM
- GI50 (OVCAR-8 ovarian): 19 µM
- TGI (OVCAR-8 ovarian): 39.6 µM
- GI50 (HL-60(TB) leukemia): 6.58 µM
- TGI (HL-60(TB) leukemia): 29.4 µM
- GI50 (BT-549 breast): 12 µM
- TGI (BT-549 breast): 25.1 µM
- GI50 (CAKI-1 renal): 10.4 µM
- TGI (CAKI-1 renal): 22.1 µM
- GI50 (COLO 205 colon): 11.5 µM
- TGI (COLO 205 colon): 24.7 µM
- GI50 (A549 NSCLC): 73.9 µM
- TGI (A549 NSCLC): > 100 µM
- GI50 (OVCAR-3 ovarian): 12.9 µM
- TGI (OVCAR-3 ovarian): 27.8 µM
- GI50 (OVCAR-5 ovarian): 18.1 µM
- TGI (OVCAR-5 ovarian): 36.7 µM
- GI50 (SN12C renal): 17.2 µM
- TGI (SN12C renal): 49.1 µM
- GI50 (786-0 renal): 15.3 µM
- TGI (786-0 renal): 29.3 µM
- GI50 (SK-MEL-5 melanoma): 18.1 µM
- TGI (SK-MEL-5 melanoma): 34.1 µM
- GI50 (SW-620 colon): 9.58 µM
- TGI (SW-620 colon): 26.2 µM
- GI50 (HOP-62 NSCLC): > 100 µM
- TGI (HOP-62 NSCLC): > 100 µM
- GI50 (NCI/ADR-RES ovarian): 29.9 µM
- TGI (NCI/ADR-RES ovarian): > 100 µM
- GI50 (DU-145 prostate): 15.6 µM
- TGI (DU-145 prostate): 29.4 µM
- GI50 (MDA-MB-435): 18.3 µM
- TGI (MDA-MB-435): 44.9 µM
- GI50 (T-47D breast): 16.1 µM
- TGI (T-47D breast): 38.5 µM
- GI50 (U251 CNS): 17.1 µM
- TGI (U251 CNS): 32.6 µM
- GI50 (SF-539 CNS): 17.6 µM
- TGI (SF-539 CNS): 32.4 µM
- GI50 (RPMI-8226 leukemia): 18.9 µM
- TGI (RPMI-8226 leukemia): 43.8 µM
- GI50 (A498 renal): > 100 µM
- TGI (A498 renal): > 100 µM
- GI50 (MDA-MB-231 breast): 23.5 µM
- TGI (MDA-MB-231 breast): 59.2 µM
- GI50 (MCF7 breast): 12 µM
- TGI (MCF7 breast): 31.6 µM
- GI50 (SF-268 CNS): 19.6 µM
- TGI (SF-268 CNS): 49.8 µM
